Results from patent US12492173B2, “Herbicidal substituted N-tetrazolyl aryl carboxamides” (Bayer Aktiengesellschaft, priority 2019, dated 2025).

Legend:
Assay type in all cases: in vivo
Alopecurus myosuroides = assay: Post-emergence herbicidal action, ALOMY; set-up: key: % herbicidal action vs untreated; 100 = plants died, 0 = like control
Method in brief: (§1)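 Greenhouse post-emergence test: weeds sown in sandy loam were sprayed once at one leaf, 2 to 3 weeks from sowing, with aqueous WP or EC preparations carrying 0.2% wetting agent. Effect is scored visually after about 3 weeks.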

Avena fatua = assay: Post-emergence herbicidal action, AVEFA; set-up: key: % herbicidal action vs untreated; 100 = plants died, 0 = like control; conditions: for Herbicidal action against AVEFA: comparative experiment, 5 g of a.i./ha
Method in brief: as §1

Stellaria media = assay: Pre-emergence herbicidal action, STEME; set-up: key to Herbicidal action against STEME: % activity: 100 = plants have died, 0 = like control plants; conditions: for herbicidal activity STEME / herbicidal action STEME: dosage 320 g/ha; for herbicidal activity STEME: scored visually after 3 weeks vs untreated controls (100% = plants have died); for Herbicidal action against STEME: comparative experiment, 20 g of a.i./ha
Method in brief: (§2)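 Herbicidal activity is expressed in percent, scored by eye after a 3-week greenhouse period, with 0% matching untreated plants and 100% meaning death. Compounds, as wettable powders or emulsion concentrates, are applied pre-emergence to the covering soil.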

Abutilon theophrasti = assay: Post-emergence herbicidal action, ABUTH; set-up: key: % herbicidal action vs untreated; 100 = plants died, 0 = like control
Method in brief: as §1

Pharbitis purpurea = assay: Post-emergence herbicidal action, PHBPU
Method in brief: as §1

Echinochloa crus-galli = assay: Pre-emergence herbicidal action, ECHCG; set-up: key to Herbicidal action against ECHCG: % activity: 100 = plants have died, 0 = like control plants; conditions: for herbicidal activity ECHCG / herbicidal action ECHCG: dosage 320 g/ha; for herbicidal activity ECHCG: scored visually after 3 weeks vs untreated controls (100% = plants have died); for Herbicidal action against ECHCG: comparative experiment, 20 g of a.i./ha
Method in brief: as §2

[1] = comparative experiment, post-emergence, 5 g of a.i./ha

Structure (SMILES)	herbicidal action ALOMY (Alopecurus myosuroides; post-emergence, dosage 80 g/ha)	herbicidal action AVEFA (Avena fatua; post-emergence, dosage 80 g/ha)	herbicidal activity STEME (Stellaria media)	herbicidal action ABUTH (Abutilon theophrasti; post-emergence, dosage 80 g/ha)	herbicidal action PHBPU (Pharbitis purpurea; post-emergence, dosage 80 g/ha)	herbicidal activity ECHCG (Echinochloa crus-galli)	Herbicidal action against STEME (Stellaria media)	herbicidal action ALOMY (Alopecurus myosuroides; Dosage 80 g/ha)	herbicidal action AVEFA (Avena fatua; Dosage 80 g/ha)	herbicidal action ABUTH (Abutilon theophrasti; Dosage 80 g/ha)	herbicidal action PHBPU (Pharbitis purpurea; Dosage 80 g/ha)	herbicidal action STEME (Stellaria media)	herbicidal action ECHCG (Echinochloa crus-galli)	Herbicidal action against AVEFA (Avena fatua; post-emergence)	Herbicidal action against ECHCG (Echinochloa crus-galli)	Herbicidal action against ALOMY (Alopecurus myosuroides; [1])	Herbicidal action against ABUTH (Abutilon theophrasti; [1])
CC[S+]([O-])Cc1c(C(F)(F)F)ccc(C(=O)Nc2nnnn2C)c1Cl (racemic) [Example 1-300]	90%	100%	100%	90%	90%	100%	–	–	–	–	–	–	–	–	–	–	–
Cn1nnnc1NC(=O)c1ccc(I)c(C[S+](C)[O-])c1Cl (racemic) [Example 1-363]	90%	100%	100%	100%	90%	100%	100	–	–	–	–	–	–	–	–	–	–
COCC[S+]([O-])Cc1c(C(F)(F)F)ccc(C(=O)Nc2nnnn2C)c1Cl (racemic) [Example 1-306]	–	–	100%	–	–	100%	–	90	80	90	90	–	–	–	–	–	–
CCn1nnnc1NC(=O)c1ccc(Cl)c(CSC)c1Cl [Example 2-559]	–	–	–	–	–	–	–	90	100	90	100	90%	100%	–	–	–	–
CCn1nnnc1NC(=O)c1ccc(C(F)F)c(CSC)c1Cl [Example 2-320]	–	–	100%	–	–	100%	–	100	90	100	90	–	–	–	–	–	–
CCn1nnnc1NC(=O)c1ccc(C(F)F)c(CS(=O)(=O)CC)c1Cl [Example 2-325]	–	–	100%	–	–	100%	–	80	90	100	90	–	–	–	–	–	–
CCSCc1c(C(F)F)ccc(C(=O)Nc2nnnn2C)c1Cl [Example 1-323]	90%	100%	100%	100%	100%	100%	–	–	–	–	–	–	–	70	–	–	–
CCn1nnnc1NC(=O)c1ccc(C(F)(F)F)c(C[S+]([O-])CC)c1Cl (centres unmarked) [Example 2-300]	90%	100%	100%	90%	90%	100%	–	–	–	–	–	–	–	–	–	–	–
CSc1c(C(=O)Nc2nnnn2C)ccc(C(F)(F)F)c1C[S+](C)[O-] (centres unmarked) [Example 1-162]	100%	100%	100%	100%	100%	100%	–	–	–	–	–	–	–	–	90	–	–
CCSCc1c(C(F)(F)F)ccc(C(=O)Nc2nnnn2C)c1Cl [Example 1-299]	90%	90%	100%	100%	90%	100%	–	–	–	–	–	–	–	80	–	70	–
Cn1nnnc1NC(=O)c1ccc(C(F)(F)F)c(CSCC(F)(F)F)c1Cl [Example 1-311]	–	–	100%	–	–	100%	–	100	100	100	100	–	–	–	–	–	–
Cn1nnnc1NC(=O)c1ccc(C(F)(F)F)c(C[S+]([O-])CC(F)(F)F)c1Cl (racemic) [Example 1-312]	90%	90%	100%	100%	100%	100%	–	–	–	–	–	–	–	–	–	–	–
CCSCc1c(C(F)F)ccc(C(=O)Nc2nnnn2CC)c1Cl [Example 2-323]	80%	100%	100%	100%	90%	100%	–	–	–	–	–	–	–	–	–	–	–
CCn1nnnc1NC(=O)c1ccc(C(F)(F)F)c(CSCC(F)(F)F)c1Cl [Example 2-311]	–	–	100%	–	–	100%	–	90	90	90	90	–	–	–	–	–	–
CSCc1c(C(F)F)ccc(C(=O)Nc2nnnn2C)c1Cl [Example 1-320]	–	–	90%	–	–	100%	90	100	100	100	90	–	–	–	100	–	100
CCn1nnnc1NC(=O)c1ccc(C(F)(F)F)c(CS(=O)(=O)CC)c1C [Example 2-88]	–	–	–	–	–	–	–	90	90	80	90	–	100%	–	–	–	–
CCSCc1c(C(F)(F)F)ccc(C(=O)Nc2nnnn2CC)c1C [Example 2-86]	90%	100%	–	80%	90%	–	–	–	–	–	–	–	100%	–	–	–	–
CSCc1c(C)ccc(C(=O)Nc2nnnn2C)c1Cl [Example 1-287]	–	–	–	–	–	–	–	90	80	100	–	90%	80%	–	–	–	–
